From patent US20100209406A1, “BACILLUS STRAINS AND METHODS FOR REDUCING E. COLI DISEASE AND ENHANCING PERFORMANCE” (priority 2004, published 2010)
Residues, ends and D or L forms follow the SMILES beside them.

Tests used:
Assay in all cases: Antibiotic sensitivity assay (antibiotic discs)
Type in all cases: cell-based, Bacillus subtilis
Bacillus strain 22C-P1 = conditions: antibiotic disc on TSA with 1.0% 22C-P1, 32° C. overnight
Protocol: (§1) After the plates were solidified, the antibiotic discs were placed onto the agar surface. The plates were incubated at 32° C. overnight. Inhibitory zones were measured in millimeters.

Bacillus strain 15A-P4 = conditions: antibiotic disc on TSA with 1.0% 15A-P4, 32° C. overnight
Protocol: as §1

Bacillus strain 3A-P4 = conditions: antibiotic disc on TSA with 1.0% 3A-P4, 32° C. overnight
Protocol: as §1

Compound: CC[C@H](C)[C@H](N)C1=N[C@H](C(=O)N[C@@H](CC(C)C)C(=O)N[C@H](CCC(=O)O)C(=O)N[C@H](C(=O)N[C@H]2CCCCNC(=O)[C@H](CC(N)=O)NC(=O)[C@@H](CC(=O)O)NC(=O)[C@H](Cc3cnc[nH]3)NC(=O)[C@@H](Cc3ccccc3)NC(=O)[C@H]([C@@H](C)CC)NC(=O)[C@@H](CCCN)NC2=O)[C@@H](C)CC)CS1 [Bacitracin] (HELM PEPTIDE1{[CC[C@H](C)[C@H](N)C1=N[C@H](C(=O)[*:2])CS1].L.[dE].I.K.[NCCC[C@@H](N[*:1])C(=O)[*:2]].I.[dF].H.[dD].N}$PEPTIDE1,PEPTIDE1,5:R3-11:R2$$$V2.0)
- Inhibitory Zones (Bacillus strain 22C-P1): 8 Millimeters
- Inhibitory Zones (Bacillus strain 15A-P4): 8 Millimeters
- Inhibitory Zones (Bacillus strain 3A-P4): 8 Millimeters

Compound: CCC[C@@H]1C[C@@H](C(=O)N[C@@H]([C@H]2O[C@H](SC)[C@H](O)[C@@H](O)[C@H]2O)[C@@H](C)O)N(C)C1 [Lincomycin]
- Inhibitory Zones (Bacillus strain 22C-P1): 8 Millimeters
- Inhibitory Zones (Bacillus strain 15A-P4): 9 Millimeters
- Inhibitory Zones (Bacillus strain 3A-P4): 8 Millimeters

Compound: CN(C)[C@@H]1C(=O)C(C(N)=O)=C(O)[C@@]2(O)C(=O)C3=C(O)c4c(O)cccc4[C@@](C)(O)[C@H]3[C@H](O)[C@@H]12 [Oxytetracycxyline]
- Inhibitory Zones (Bacillus strain 22C-P1): 24 Millimeters
- Inhibitory Zones (Bacillus strain 15A-P4): 14 Millimeters
- Inhibitory Zones (Bacillus strain 3A-P4): 24 Millimeters

Compound: CN(C)[C@@H]1C(O)=C(C(N)=O)C(=O)[C@@]2(O)C(O)=C3C(=O)c4c(O)cccc4[C@@](C)(O)[C@H]3C[C@@H]12 [Tetracycline]
- Inhibitory Zones (Bacillus strain 22C-P1): 21 Millimeters
- Inhibitory Zones (Bacillus strain 15A-P4): 14 Millimeters
- Inhibitory Zones (Bacillus strain 3A-P4): 26 Millimeters

Compound: Gentamycin
- Inhibitory Zones (Bacillus strain 22C-P1): 22 Millimeters
- Inhibitory Zones (Bacillus strain 15A-P4): 22 Millimeters
- Inhibitory Zones (Bacillus strain 3A-P4): 26 Millimeters

Compound: Neomycin
- Inhibitory Zones (Bacillus strain 22C-P1): 12 Millimeters
- Inhibitory Zones (Bacillus strain 15A-P4): 12 Millimeters
- Inhibitory Zones (Bacillus strain 3A-P4): 16 Millimeters

Compound: Penicillin
- Inhibitory Zones (Bacillus strain 22C-P1): 13 Millimeters
- Inhibitory Zones (Bacillus strain 15A-P4): 11 Millimeters
- Inhibitory Zones (Bacillus strain 3A-P4): 0 Millimeters
